Results taken from PMC6627868 (Marine Drugs, 2019).

Columns and labels:
[1] = simulated gastric fluid, pH 1.8
[2] = simulated intestinal fluid, pH 6.5
[3] = pH 6.5

Q: With `CC[C@H](C)[C@@H]1NC(=O)[C@@H]2CCCN2C(=O)[C@H](CO)NC(=O)[C@H](CCSC)NC(=O)[C@H](C)NC(=O)[C@H](CO)NC(=O)[C@@H]2CSSC[C@H](NC(=O)CN)C(=O)N[C@@H](CSSC[C@@H](C(N)=O)NC1=O)C(=O)N[C@@H](CO)C(=O)N[C@@H](Cc1cnc[nH]1)C(=O)N1CCC[C@H]1C(=O)N[C@@H](C(C)C)C(=O)N2` [TxID, α-Conotoxin TxID] as the compound, how does the remaining at 48 h [1] read?
A: The remaining at 48 h was 65.2 ± 2%.

Q: What about the remaining at 0.5 h [2] of the same compound?
A: The remaining at 0.5 h was 36.3 ± 2%.

Q: And the “remaining amount in SIF after 2 h” value [3]?
A: The value was 5.8 ± 2.0%.
